This assay has as its target T1, inducible NO-synthase (NO-synthase 2) (Homo sapiens, UniProt P35228).
T1 construct: positive control (induction of the enzyme): mixtures of γ-interferon (1 000 U/ml) and interleukin-1β (100 U/ml); endogenous in cells
Briefly: Activity on inducible NO-synthase: decrease in nitrate and nitrite concentration after stimulation of NO-synthase 2 (test of Heck et al.). It is filed as cell-based. Conditions: for % inhibition: induction with γ-interferon 1 000 U/ml and interleukin-1β 100 U/ml, nitrites and nitrates measured. How it is done: The activity of lipochroman-6 on inducible NO-synthase was evaluated in the test described by Heck et al. (J. B. C., Vol. 267, No. 30, 21277–21280, Oct. 25, 1992).
In order to determine the activity of the product to be tested, the amount of stable NO reaction products (nitrites and nitrates) is measured using the nitric calorimetric assay kit sold by the company Boehringer under the reference 1756.28.
The lipochroman-6 was tested at the concentrations of 0.005% and 0.01% (weight/volume) in ethanol.

T1 sequence (P35228 whole entry, species assumed): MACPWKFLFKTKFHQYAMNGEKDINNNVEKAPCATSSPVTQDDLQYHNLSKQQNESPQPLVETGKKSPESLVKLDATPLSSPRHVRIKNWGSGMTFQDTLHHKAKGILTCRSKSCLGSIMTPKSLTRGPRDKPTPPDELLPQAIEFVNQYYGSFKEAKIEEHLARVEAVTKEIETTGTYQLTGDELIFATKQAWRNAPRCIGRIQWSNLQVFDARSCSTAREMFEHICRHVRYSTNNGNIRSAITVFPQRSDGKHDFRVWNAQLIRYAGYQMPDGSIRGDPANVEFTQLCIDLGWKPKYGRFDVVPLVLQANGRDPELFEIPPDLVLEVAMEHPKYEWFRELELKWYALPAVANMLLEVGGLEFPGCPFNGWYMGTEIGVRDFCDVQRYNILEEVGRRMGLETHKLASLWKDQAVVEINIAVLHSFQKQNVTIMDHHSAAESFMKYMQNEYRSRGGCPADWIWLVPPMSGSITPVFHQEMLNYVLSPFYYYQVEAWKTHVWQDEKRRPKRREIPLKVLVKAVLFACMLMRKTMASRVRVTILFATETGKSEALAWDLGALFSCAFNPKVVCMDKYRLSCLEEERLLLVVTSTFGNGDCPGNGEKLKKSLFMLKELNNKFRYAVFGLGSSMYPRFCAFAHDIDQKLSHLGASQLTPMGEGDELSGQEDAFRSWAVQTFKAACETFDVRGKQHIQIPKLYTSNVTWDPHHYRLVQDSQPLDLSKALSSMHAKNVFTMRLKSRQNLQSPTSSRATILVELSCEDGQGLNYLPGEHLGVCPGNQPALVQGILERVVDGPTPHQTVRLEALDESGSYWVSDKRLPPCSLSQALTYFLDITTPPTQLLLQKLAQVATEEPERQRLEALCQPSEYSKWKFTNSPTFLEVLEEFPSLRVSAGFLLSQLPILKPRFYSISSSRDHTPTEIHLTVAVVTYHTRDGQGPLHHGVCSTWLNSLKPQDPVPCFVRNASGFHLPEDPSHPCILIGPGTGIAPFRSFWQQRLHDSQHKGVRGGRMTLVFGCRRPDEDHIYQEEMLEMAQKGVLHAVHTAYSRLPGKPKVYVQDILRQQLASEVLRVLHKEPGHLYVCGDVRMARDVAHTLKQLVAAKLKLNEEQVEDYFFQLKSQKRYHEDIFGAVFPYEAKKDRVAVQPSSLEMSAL

For `COc1cc2c(cc1O)CCC(C)(C)O2` [Lipochroman-6, lipochroman-6], the “effect on inducible NO-synthase (in words)” value is “inhibitory effect”. Also, under “lipochroman-6 at 0.005% (weight/volume) in ethanol”, the “% inhibition” value is reported as 38%. For the same compound, where the note is “lipochroman-6 at 0.01% (weight/volume) in ethanol”, the “% inhibition” value was determined as 95%.
